Entries after “also recorded” stand apart in the source; their conditions may differ.
Experiments:
[1] = target: T1, Protein tyrosine phosphatase 1B (PTP1B, human recombinant) (Homo sapiens, UniProt P18031); test: Enzyme kinetic analysis (Lineweaver-Burk and Dixon plots); type: biochemical; settings: for Ki: determined by Dixon plot; for Inhibition Type: determined by Lineweaver-Burk plot
T1 construct: purchased Biomol International LP (Plymouth Meeting, PA, USA)
T1 sequence (P18031 1-435): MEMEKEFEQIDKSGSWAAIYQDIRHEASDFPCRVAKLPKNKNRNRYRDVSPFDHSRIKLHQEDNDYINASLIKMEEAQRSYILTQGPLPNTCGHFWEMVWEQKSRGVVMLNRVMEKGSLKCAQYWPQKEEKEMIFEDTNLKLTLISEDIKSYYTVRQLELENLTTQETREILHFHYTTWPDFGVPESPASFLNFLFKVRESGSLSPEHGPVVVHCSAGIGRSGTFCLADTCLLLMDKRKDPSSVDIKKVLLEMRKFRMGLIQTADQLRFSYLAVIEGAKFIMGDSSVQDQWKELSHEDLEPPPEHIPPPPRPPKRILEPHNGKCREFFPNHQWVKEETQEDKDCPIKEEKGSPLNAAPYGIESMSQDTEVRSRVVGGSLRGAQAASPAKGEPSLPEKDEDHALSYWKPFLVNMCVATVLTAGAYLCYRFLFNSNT
From the text: Here, we employed Lineweaver-Burk and Dixon plots to determine the inhibition type and inhibition constant (Ki value) for each compound (Figure 2, Table 1).
(§1) Ethylenediaminetetraacetic acid, p-nitrophenyl phosphate (pNPP), and dimethylsulfoxide were purchased from Sigma-Aldrich Co. (St. Louis, MO, USA). Protein tyrosine phosphatase 1B (PTP1B, human recombinant) and dithiothreitol (DTT) were purchased from Biomol® International LP (Plymouth Meeting, PA, USA) and Bio-Rad Laboratories (Hercules, CA, USA), respectively. All chemicals and solvents used in the isolation and enzyme assays were of reagent grade and were purchased from commercial sources. TLC were performed on a precoated Merck Kiesel gel 60 F254 plates (20 × 20 cm, 0.25 mm) and RP-18 F254S plates (5 × 10 cm) (Merck, Darmstadt, Germany).
The kinetic parameters were determined using Lineweaver-Burk double-reciprocal plots and the Dixon plot method at increasing substrate and compound concentrations. All measurements were measured in triplicate, and Sigma Plot 12.0 (SPCC Inc., Chicago, IL, USA) was used to calculate the experimental parameters.

[2] = target: T1, Protein tyrosine phosphatase 1B (PTP1B, human recombinant); test: PTP1B inhibitory assay (inhibition of pNPP hydrolysis catalyzed by PTP1B); type: biochemical
From the text: as §1
Inhibition of pNPP hydrolysis catalyzed by PTP1B was carried out by the method as described but with slight modification.

PTP1B = system: PTP1B; parameters: method as in PMID 15258570; settings: allosteric inhibitor of PTP1B; cited from earlier work

| Compound | Ki [1] [µM] | Inhibition Type [1] | IC50 [2] [µM] | times more potent than compound A ([2]; MD2 vs compound A, PTP1B inhibition) [times] | IC50 (PTP1B) [µM] | reduction of activity (SA vs. MD) ([2]; replacement of C3′-OH with -OCH3, SA vs. MD) [times] |
| --- | --- | --- | --- | --- | --- | --- |
| CC(C)=CCCC1(C)C=Cc2c(ccc3cc(-c4cc(O)cc(O)c4CC=C(C)C)oc23)O1 (centres unmarked) [MD2, mulberrofuran D2] | 2.63 | non-competitive inhibition; also recorded: non-competitive inhibitor; also recorded: Noncompetitive | 3.11 ± 0.1 | 7 |  |  |
| CC(C)=CCC/C(C)=C/CC/C(C)=C\Cc1c(O)cc(O)c(CC=C(C)C)c1-c1cc2ccc(O)cc2o1 [MB, morusalfuran B] | 2.84 | mixed-type inhibition; also recorded: mixed type inhibitor | 12 ± 0.75 |  |  |  |
| C[C@@]12C=C(c3c(O)cc(-c4cc5ccc(O)cc5o4)cc3O)C[C@@H](C1)c1ccc(O)cc1O2 [MH, mulberrofuran H] |  |  | 53.5 ± 12.5 |  |  |  |
| COc1cc(O)cc(-c2cc3ccc(O)c(C/C=C(\C)CCC=C(C)C)c3o2)c1CC=C(C)C [SA, sanggenofuran A] |  |  | 31.9 ± 2.98 |  |  | > 3 |
| CC(C)=CCC/C(C)=C/Cc1c(O)ccc2cc(-c3cc(O)cc(O)c3CC=C(C)C)oc12 [MD, mulberrofuran D] | 4.79 | mixed-type inhibition; also recorded: mixed type inhibitor | 11.6 ± 0.19 |  |  |  |
